Reference: US6524785B1, “Perfusion and/or preservation and/or re-perfusion solution during organ transplant” (Centre National de la Recherche Scientifique, priority 1998, dated 2003)
“Also recorded” adds a separate entry of the source.

Tests used:
isolated, perfused heart = test: Isolated perfused rat heart: cardioplegic arrest, cold ischemia and re-perfusion, hemodynamic and metabolic evaluation (P-31 MRS, biochemistry); settings: L-arginine added versus without
Protocol: The hearts are removed from male Sprague Dawley rats of 350 to 375 g and anaesthetised by intraperitoneal injection of pentobarbital. The hearts are then perfused following the isovolumic contracting heart model. In this model, the heart is perfused with Krebs-Henseleit buffer at 37° C., without phosphate, in a retrograde manner via the aorta, at a constant pressure of 100 mmHg An incompressible balloon, placed in the left ventricle makes the contraction isovolumic. This model makes it possible to evaluate the cardiac function, by the developed pressure and to measure the compliance by measurement of the diastolic pressure. […]
The signals observed in the RMN spectrum of the P-31 are those of inorganic phosphate, phosphocreatine and the 3 phosphorous molecules of ATP. […] The areas and the positions of resonance are determined by using the NMR1 program (New Methods Research Syracuse, N.Y.) on an IBM Risc System 6000 operating system.
The areas measured are corrected by taking into consideration the saturation factors determined by comparing the acquired spectrums to completely relaxed spectrums. The areas of different metabolites can thus be converted into concentrations by referring to the ATPβ area, taking into consideration a cytosolic concentration of 11.6 mM for the ATP (determined by high pressure liquid chromatography). […]

transplanted heart = test: Heterotopic transplant of rat heart, 3 hours of ischemia, function and energy metabolism after 1 hour and 24 hours of re-perfusion; assay type: in vivo; settings: with versus without arginine, after 1 hour and after 24 hours of re-perfusion; first results
Protocol: FIG. 20 represents, within the framework of a protocol corresponding to 3 hours of ischemia with arrest and preservation in CRMBM solution, the ratios of different energy metabolites after 1 hour of re-perfusion (represented by the white histogram marked with black lines) and 24 hours of re-perfusion (represented by the histogram with white and black hatching).
The cardiac function, as represented by the derivative of developed pressure (dP/dtmax), is indicated by the black histogram without arginine, and by the histogram with white and black hatching with arginine.
A heterotopic transplant of rat heart model has been developed, working where the function and the metabolism can be simultaneously analysed. In this model the functional and metabolic recovery has thus been studied after 1 hour and 24 hours of re-perfusion after ischemia of 3 hours, protected by the invention solution.
The study has made it possible to analyse the long term recovery of the heart, comparing 1 hour and 24 hours of re-perfusion.

## N=C(N)NCCC[C@H](N)C(=O)O [L-arginine]
isolated, perfused heart; 8 hours of ischemia and re-perfusion, HPLC
  content in adenylic nucleotides: without however affecting
isolated, perfused heart; protocol 3: 8 hours of ischemia, HPLC in frozen hearts
  pool of amino acids during re-perfusion: greater pool of amino acids; also recorded: limits the depletion
Transplanted heart
  functional recovery of the heart, effect of L-arginine: beneficial effect
